Several values for one entry are separate records, joined by “and”; a condition that tells them apart may be missing. Equal values may be shown once.
Experiments:
[1] = tested on: SARS-CoV-2 (BetaCoV/Munich/BavPat1/2020)
[2] = LDH cytotoxicity assay, CC50 determination on Calu-3 cells; type: cell-based; details: human
Method: In short, 2x10^4 Calu-3 cells were seeded per well in 96-well cell culture plates in IMDM medium containing 10% FBS, 100 units/mL penicillin, and 100 µg/mL streptomycin two days before treatment. Prior to the treatment, the medium was removed, and the cells were washed once with PBS. The cells were subsequently treated in quadruplicates with 600, 500, 400, 350, 300, 250, 200, 150, or 100 µM zapnometinib dissolved in DMSO and diluted in IMDM medium containing 5% FBS, 100 units/mL penicillin, and 100 µg/mL streptomycin. The DMSO concentration upon treatment was 1%. A DMSO control was supplied with 1% DMSO (without zapnometinib). An untreated control (spontaneous LDH release control) was supplied with cell culture medium (5% FBS). Viability assessment with LDH assay was performed after 24 and 48 h treatment. Therefore, 10 µL 10X Lysis Buffer were added to one well of each quadruplicate treatment set (maximum LDH release control) and the plates were incubated 45 min at 37 °C and 5% CO2. […] After 30 min incubation in the dark at RT, 50 µL stop solution were added to the wells and the absorbance was read at 490 nm and 680 nm. The absorbance measured at 680 nm was subtracted from the absorbance at 490 nm and the %Viability was calculated using the following formula: […]

human PBMCs = assay: Cytokine and chemokine levels in LPS-stimulated human PBMCs (ELISA); type: cell-based; details: 1 µg/mL LPS, 10 µg/mL zapnometinib, 6 h, vs untreated control
Method: Human peripheral blood mononuclear cells (PBMCs) were isolated from healthy volunteers registered with the Biobank of the Department of Immunology at the University of Tuebingen, after informed consent documented in writing. Ethical approval was obtained upon review by the Ethics Board of the Medical Faculty of the Eberhard Karls University Tuebingen and the University Hospital Tuebingen (887/2020BO2). Briefly, 50 ml whole blood (roughly 5x10^7 PBMCs) of two donors were taken in 50 ml syringes (BD Biosciences, Franklin Lakes, New Jersey, USA) supplied with heparin-natrium (100.000 I.E./ml; Braun, Melsungen, Germany). The whole blood was mixed with PBS (Gibco, Carlsbad, California, USA) in a 1:1 ratio in 50 ml tubes (Greiner Bio-One, Frickenhausen, Germany), and PBMCs were subsequently isolated from the whole blood by density gradient centrifugation using Histopaque®-1077 (Sigma-Aldrich, St. Louis, Missouri, USA) as density gradient medium. Five millilitres of plasma per donor were preserved for cell culture medium preparation. The PBMCs were then purified by washing them twice with PBS.
2x10^6 human PBMCs from two donors each were suspended in 1 mL RPMI 1640 medium (Gibco) containing 5% autologous plasma, 1% penicillin/streptomycin (Sigma-Aldrich), and 1% L-glutamine (Sigma-Aldrich) and were treated with 1 μg/mL LPS from E. coli O55:B5 (prepared in PBS) and 10 μg/mL zapnometinib (prepared in DMSO and diluted in cell culture medium to a final concentration of 0.1% DMSO) for 6 h at 37°C and 5% CO2. The supernatants (cell culture medium) were collected and stored at -20°C until analysis by ELISA. Ready-to-use ELISA kits (Invitrogen, Waltham, Massachusetts, USA) were used according to the manufacturer’s instructions to determine the levels of the following cytokines: IL-1β, IL-6, IL-8, IP-10, MCP-1, MIP-1α, and TNF-α. Briefly, the samples and standards were applied to ELISA plates pre-coated with specific antibodies targeting the cytokines of interest. Biotinylated detection antibodies binding to the cytokines of interest were added to the wells followed by a horseradish peroxidase (HRP)-streptavidin conjugate, which binds to the biotinylated detection antibodies. Unbound cytokines, detection antibodies, and HRP-streptavidin conjugate were removed by washing. Tetramethylbenzidine (TMB) substrate was added, and the color change in the wells served as the readout for the ELISA. Optical density (OD) at 450 nm was measured using a SpectraMAX Plus 384 microplate reader. For IL-1β, IL-8, MCP-1, and TNF-α the OD was also read at a reference wavelength of 620 nm, and for IL-6 at a reference wavelength of 550 nm. For IP-10 and MIP-1α no reference wavelength was used. Cytokine and chemokine concentrations were calculated following the manufacturer’s instructions for interpolating unknown concentrations from a standard curve.

Structure (SMILES): O=C(O)c1ccc(F)c(F)c1Nc1ccc(I)cc1Cl [zapnometinib]
- tolerability ([1]; 100 mg/kg then 75 mg/kg daily p.o., both groups): well tolerated
- viral titers in nasal turbinates ([1]; […], did not reach statistical significance): trend toward lower mean viral titers
- lung inflammation (infiltrating inflammatory cells, consolidation, decreased air containing space) ([1]; hamster, in vivo): less severe
- mean body weight loss ([1]; hamster, in vivo): 8-11%
- mean viral titer in throat swabs ([1]; hamster, in vivo): still lower in the throat swabs of drug-treated animals, although no statistically significant differences
- percentage of lung injury in lung tissue (gross pathology) ([1]; hamster, in vivo): significantly reduced
- reduction in replication-competent virus in throat swabs (TCID50 assay) ([1]; hamster, in vivo): 1.1 log10 and 1.3 log10
- reduction of infectious viral titer in nasal turbinates (TCID50 assay) ([1]; hamster, in vivo): 1.3 log10
- reduction of viral load in nasal turbinates (RT-qPCR) ([1]; hamster, in vivo): 1.1 log10
- viral load in throat swabs ([1]; hamster, in vivo): comparable
- viral titer reduction (number of viral copies) in throat swabs (RT-qPCR) ([1]; hamster, in vivo): 1.1 log10 and 1.2 log10
- treatment-related adverse effects ([1]; zapnometinib-treated groups vs vehicle-treated group): no treatment-related adverse effects were observed
- CC50 at 24 h ([2]; 24 h treatment): 532 µM and 218 µg/mL
- CC50 at 48 h ([2]; 48 h treatment): 471 µM and 193 µg/mL
- IL-1β expression level (human PBMCs): significantly reduced
- IL-6 expression level (human PBMCs): significantly reduced
- IL-8 expression level (human PBMCs): significantly reduced
- IP-10 expression level (human PBMCs): significantly reduced
- MCP-1 expression level (human PBMCs): significantly reduced
- MIP-1α expression level (human PBMCs): significantly reduced
- TNF-α expression level (human PBMCs): significantly reduced

— publication PMC12498288 (Frontiers in Immunology, 2025)
